# Where two headings read alike, the source gives them in different places. Bridge positions count the residues as written; N and C are the ends. Peptide text beside a SMILES is read from it.
# Assays:
# Assay in all cases: biochemical
# Format in all cases: binding
# Ac-AChBP = target: T1, Ac-AChBP (Aplysia californica, UniProt Q8WSF8); settings: SEM
# T1 construct: made in house
# Ls-AChBP = target: T2, Ls-AChBP (Lymnaea stagnalis, UniProt P58154)
# T2 construct: made in house
# Q55K Ls-AChBP mutant = target: T3, Q55K Ls-AChBP mutant (Lymnaea stagnalis, UniProt P58154, Q74K)
# T3 construct: made in house; Top10 E. coli is named only for plasmid propagation
SMILES,IC50 (Ac-AChBP) [nM],IC50 (Ls-AChBP; SEM) [nM],IC50 (Q55K Ls-AChBP mutant; SEM) [nM],IC50 (Ls-AChBP) [nM],IC50 (Q55K Ls-AChBP mutant) [nM],activity at Ls-AChBP (in words) (Ls-AChBP)
"CC[C@H](C)[C@@H]1NC(=O)[C@H](CC(N)=O)NC(=O)[C@@H]2CCCN2C(=O)[C@H](CC(N)=O)NC(=O)[C@H](CCC(N)=O)NC(=O)[C@H](C(C)C)NC(=O)[C@H](CCCNC(=N)N)NC(=O)[C@@H]2CSSC[C@H](NC(=O)CNC(=O)[C@@H](N)CO)C(=O)N[C@@H](CSSC[C@@H](C(N)=O)NC1=O)C(=O)N[C@@H](CO)C(=O)N[C@@H](CC(N)=O)C(=O)N1CCC[C@H]1C(=O)N[C@@H](C)C(=O)N2 [N12Q-LsIA] (H-SGCCSNPACRVQNPNIC-NH2; disulfide 3-9, 4-17)",55.2 ± 0.9,2440 ± 750,–,–,–,–
"CC[C@H](C)[C@@H]1NC(=O)[C@H](CC(N)=O)NC(=O)[C@@H]2CCCN2C(=O)[C@H](CC(N)=O)NC(=O)[C@H](CC(N)=O)NC(=O)[C@H](C(C)C)NC(=O)[C@H](Cc2ccccc2)NC(=O)[C@@H]2CSSC[C@H](NC(=O)CNC(=O)[C@@H](N)CO)C(=O)N[C@@H](CSSC[C@@H](C(N)=O)NC1=O)C(=O)N[C@@H](CO)C(=O)N[C@@H](CC(N)=O)C(=O)N1CCC[C@H]1C(=O)N[C@@H](C)C(=O)N2 [R10F-LsIA] (H-SGCCSNPACFVNNPNIC-NH2; disulfide 3-9, 4-17)",2.2 ± 0.05,110 ± 20,800 ± 260,–,–,–
"CC[C@H](C)[C@@H]1NC(=O)[C@H](CC(N)=O)NC(=O)[C@@H]2CCCN2C(=O)[C@H](CC(N)=O)NC(=O)[C@H](CC(N)=O)NC(=O)[C@H](C(C)C)NC(=O)[C@H](CCSC)NC(=O)[C@@H]2CSSC[C@H](NC(=O)CNC(=O)[C@@H](N)CO)C(=O)N[C@@H](CSSC[C@@H](C(N)=O)NC1=O)C(=O)N[C@@H](CO)C(=O)N[C@@H](CC(N)=O)C(=O)N1CCC[C@H]1C(=O)N[C@@H](C)C(=O)N2 [R10M-LsIA] (H-SGCCSNPACMVNNPNIC-NH2; disulfide 3-9, 4-17)",1.88 ± 0.65,500 ± 160,7100 ± 2500,–,–,–
"CC[C@H](C)[C@@H]1NC(=O)[C@H](CC(N)=O)NC(=O)[C@@H]2CCCN2C(=O)[C@H](CC(N)=O)NC(=O)[C@H](CC(C)C)NC(=O)[C@H](C(C)C)NC(=O)[C@H](CCCNC(=N)N)NC(=O)[C@@H]2CSSC[C@H](NC(=O)CNC(=O)[C@@H](N)CO)C(=O)N[C@@H](CSSC[C@@H](C(N)=O)NC1=O)C(=O)N[C@@H](CO)C(=O)N[C@@H](CC(N)=O)C(=O)N1CCC[C@H]1C(=O)N[C@@H](C)C(=O)N2 [N12L-LsIA] (H-SGCCSNPACRVLNPNIC-NH2; disulfide 3-9, 4-17)",61 ± 7,–,–,> 10000,–,–
"CC[C@H](C)[C@@H]1NC(=O)[C@H](CC(N)=O)NC(=O)[C@@H]2CCCN2C(=O)[C@H](CC(N)=O)NC(=O)[C@H](CC(=O)O)NC(=O)[C@H](C(C)C)NC(=O)[C@H](CCCNC(=N)N)NC(=O)[C@@H]2CSSC[C@H](NC(=O)CNC(=O)[C@@H](N)CO)C(=O)N[C@@H](CSSC[C@@H](C(N)=O)NC1=O)C(=O)N[C@@H](CO)C(=O)N[C@@H](CC(N)=O)C(=O)N1CCC[C@H]1C(=O)N[C@@H](C)C(=O)N2 [N12D-LsIA] (H-SGCCSNPACRVDNPNIC-NH2; disulfide 3-9, 4-17)",5550,–,–,> 10000,–,–
"CC[C@H](C)[C@@H]1NC(=O)[C@H](CC(N)=O)NC(=O)[C@@H]2CCCN2C(=O)[C@H](CC(N)=O)NC(=O)[C@H](CC(N)=O)NC(=O)[C@H](C(C)C)NC(=O)[C@H](CC(=O)O)NC(=O)[C@@H]2CSSC[C@H](NC(=O)CNC(=O)[C@@H](N)CO)C(=O)N[C@@H](CSSC[C@@H](C(N)=O)NC1=O)C(=O)N[C@@H](CO)C(=O)N[C@@H](CC(N)=O)C(=O)N1CCC[C@H]1C(=O)N[C@@H](C)C(=O)N2 [R10D-LsIA] (H-SGCCSNPACDVNNPNIC-NH2; disulfide 3-9, 4-17)",8370,–,–,> 10000,> 10000,inactive

# — PMC5374441 (Scientific Reports, 2017)
